According to patent publication US20220395451A1, “NOVEL SKIN CARE COMPOSITION” (BEIERSDORF AG, priority 2019, published 2022):
Several values for one entry are separate records, joined by “and”; a condition that tells them apart may be missing. Equal values may be shown once.

Legend:
C. acnes strain K8 = test: Minimum inhibitory concentration (MIC) of cosmetic excipients, strain K8; type: cell-based, Cutibacterium acnes; details: % w/vol; anaerobic incubation 3 days at 37° C.; growth scored visually
Procedure: (§1) In microbiology, the MIC is the lowest concentration of a chemical which prevents visible growth of bacterium. The resulted MIC value depends both on the microorganism and the test compound. The MIC is determined by preparing concentrations series of the test compound in vitro, incubating the solutions with the separate batches of cultured bacteria, and measuring the results using agar dilution or broth microdilution. For the experiments with C. acnes strains C3 and K8, media comprising yeast extract soy peptone and dextrose were used. The MIC is determined by turbidity.
(§2) A total of 125 cosmetic excipients were tested for their compatibility with C. acnes strains C3 and K8. Hydrophilic compounds were tested in a 96-well plate liquid broth format, poorly soluble compounds were pre-dissolved in DMSO before dilution in liquid broth and hydrophobic or solid compounds were tested in an agar well diffusion test assay. The different dilutions of the test excipients in media were prepared in Falcon tubes and then distributed in a deep well plate using a multistepper. Each well received 1.2 ml and was subsequently inoculated with 120 μl of C. acnes bacteria suspension (strain C3 and K8). From the deep well plate 200 μl were transferred in each well of a clear 96 well replicate plate. The leftover was discarded. The plates were then incubated anaerobically for 3 days at 37° C. Following incubation, the test plates were visually examined and wells were scored for growth or complete growth inhibition to define the minimum inhibitory concentration.
(§3) These excipients are listed in the below table with their compatibility values for C. acnes strains C3 and K8. The compatibility values represent the MIC value of the listed ingredients with the tested C. acnes strains. At this concentration [% w/vol] the tested compound starts interfering with the growth of the tested strains. The compounds can be used in formulations at concentrations below this concentration.

C. acnes strain C3 = test: Minimum inhibitory concentration (MIC) of cosmetic excipients, strain C3; type: cell-based, Cutibacterium acnes; details: % w/vol; anaerobic incubation 3 days at 37° C.; growth scored visually
Procedure: as §1, §2, §3

Molecule | COMPATABILITY VALUE C3 (MIC) (C. acnes strain K8) | COMPATABILITY VALUE C3 (MIC) (C. acnes strain C3) | COM[…] C3 (MIC) (C. acnes strain K8) | COM[…] C3 (MIC) (C. acnes strain C3)
CCCCCCC(O)CO (stereo not shown) [caprylyl glycol] | 0.18% | 0.18% | – | –
O=C(O)CC(O)(CC(=O)O)C(=O)O [citric acid] | 0.08% | 0.33% | – | –
CCO [ethanol] | 3.75% | – | – | –
CC(CO)CO [methylpropanediol] | 4.00% | 4.00% | – | –
CC(=O)Oc1c(C)c(C)c2c(c1C)CCC(C)(CCC[C@H](C)CCC[C@H](C)CCCC(C)C)O2 (stereo partly shown) [tocopheryl acetate] | 1.00% | 1.00% | – | –
Citric acid/citrate | – | – | 1.30% | 1.30%
tocopherol | 1.50% and 10.00% | 1.50% and 10.00% | – | –
